In ChEMBL document CHEMBL1201862, “PubChem BioAssay data set” (2004):
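Briefly, cells in 96-well plates were exposed to five compound concentrations for 48 h, and endpoints were estimated by linear interpolation. GI50 marks 50% less growth.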 Active and inactive are the calls of the source. Rule as the data show it: active = GI50 up to about 1.1 µM and inactive = higher.

Columns and labels:
Experiment in all cases: inhibition of tumour cell growth, NCI panel, 48 h
A549 = system: A549
ACHN = system: ACHN
CAKI-1 = system: CAKI-1
COLO 205 = system: COLO 205
HCT-116 = system: HCT-116
HT-29 = system: HT-29
IGROV-1 = system: IGROV-1
KM12 = system: KM12
NCI-H23 = system: NCI-H23
OVCAR-5 = system: OVCAR-5
OVCAR-8 = system: OVCAR-8
RXF 393 = system: RXF 393
SF-295 = system: SF-295
SK-MEL-28 = system: SK-MEL-28
SK-MEL-2 = system: SK-MEL-2
SNB-75 = system: SNB-75
TK-10 = system: TK-10
UO-31 = system: UO-31
DU-145 = system: DU-145
NCI/ADR-RES = system: NCI/ADR-RES

Compound	GI50 (A549)	GI50 (ACHN)	GI50 (CAKI-1)	GI50 (COLO 205)	GI50 (HCT-116)	GI50 (HT-29)	GI50 (IGROV-1)	GI50 (KM12)	GI50 (NCI-H23)	GI50 (OVCAR-5)	GI50 (OVCAR-8)	GI50 (RXF 393)	GI50 (SF-295)	GI50 (SK-MEL-28)	GI50 (SK-MEL-2)	GI50 (SNB-75)	GI50 (TK-10)	GI50 (UO-31)	GI50 (DU-145)	GI50 (NCI/ADR-RES)
CC(=O)n1c(=O)c2cc3c(=O)n(-c4cccc(C#N)c4)c(=O)c3cc2c1=O	> 100 µM (inactive)	> 100 µM (inactive)	> 100 µM (inactive)	> 100 µM (inactive)	> 100 µM (inactive)	> 100 µM (inactive)	> 100 µM (inactive)	> 100 µM (inactive)	> 100 µM (inactive)	> 100 µM (inactive)	> 100 µM (inactive)	> 100 µM (inactive)	60.7 µM (inactive)	> 100 µM (inactive)	> 100 µM (inactive)	23.7 µM (inactive)	> 100 µM (inactive)	> 100 µM (inactive)	–	–
Cc1cc(C)n2c(-c3ccccc3)c(C)cc2n1	75.5 µM (inactive)	95.7 µM (inactive)	30.9 µM (inactive)	43.5 µM (inactive)	67.8 µM (inactive)	25.8 µM (inactive)	66.2 µM (inactive)	60.8 µM (inactive)	41.1 µM (inactive)	> 100 µM (inactive)	49.1 µM (inactive)	39.4 µM (inactive)	48 µM (inactive)	> 100 µM (inactive)	15.3 µM (inactive)	23.1 µM (inactive)	> 100 µM (inactive)	34.9 µM (inactive)	–	–
CCOP(=O)(OCC)C1CCCOC1=O (configuration not stated)	> 100 µM (inactive)	> 100 µM (inactive)	> 100 µM (inactive)	> 100 µM (inactive)	> 100 µM (inactive)	> 100 µM (inactive)	> 100 µM (inactive)	> 100 µM (inactive)	> 100 µM (inactive)	> 100 µM (inactive)	> 100 µM (inactive)	> 100 µM (inactive)	> 100 µM (inactive)	> 100 µM (inactive)	> 100 µM (inactive)	> 100 µM (inactive)	> 100 µM (inactive)	> 100 µM (inactive)	–	–
COc1ccc(-c2cc(=O)c3c(O)cccc3o2)c(OC)c1OC	26.6 µM (inactive)	61 µM (inactive)	97.3 µM (inactive)	> 100 µM (inactive)	38.7 µM (inactive)	> 100 µM (inactive)	> 100 µM (inactive)	40.6 µM (inactive)	> 100 µM (inactive)	6.67 µM (inactive)	> 100 µM (inactive)	20.2 µM (inactive)	43.2 µM (inactive)	> 100 µM (inactive)	20.2 µM (inactive)	11.9 µM (inactive)	47.1 µM (inactive)	–	–	–
Cc1nn(-c2ccccc2)c(-c2ccccc2[N+](=O)[O-])c1CC#N	> 100 µM (inactive)	> 100 µM (inactive)	> 100 µM (inactive)	> 100 µM (inactive)	–	–	> 100 µM (inactive)	> 100 µM (inactive)	87.7 µM (inactive)	> 100 µM (inactive)	> 100 µM (inactive)	45 µM (inactive)	> 100 µM (inactive)	> 100 µM (inactive)	> 100 µM (inactive)	> 100 µM (inactive)	> 100 µM (inactive)	82.2 µM (inactive)	–	–
CC(=O)NNC1=NN(C(C)=O)C2(S1)C(=O)Nc1ccccc12 (configuration not stated)	–	> 100 µM (inactive)	> 100 µM (inactive)	–	> 100 µM (inactive)	> 100 µM (inactive)	> 100 µM (inactive)	> 100 µM (inactive)	> 100 µM (inactive)	> 100 µM (inactive)	> 100 µM (inactive)	–	–	> 100 µM (inactive)	> 100 µM (inactive)	65.8 µM (inactive)	> 100 µM (inactive)	> 100 µM (inactive)	> 100 µM (inactive)	> 100 µM (inactive)
Cc1cc(O)nc(NN2C(Cl)C(=O)C2c2ccc(O)cc2)n1 (configuration not stated)	13.6 µM (inactive)	8.07 µM (inactive)	7.13 µM (inactive)	18.7 µM (inactive)	4.81 µM (inactive)	6.65 µM (inactive)	7.71 µM (inactive)	8.63 µM (inactive)	9.62 µM (inactive)	17.8 µM (inactive)	12.6 µM (inactive)	4.26 µM (inactive)	9.48 µM (inactive)	11.1 µM (inactive)	12.6 µM (inactive)	1.87 µM (inactive)	14.9 µM (inactive)	10.5 µM (inactive)	10.9 µM (inactive)	–
c1ccc(COc2ccc3[nH]c4c5c6ccccc6nc-5c[nH]c4c3c2)cc1	17.8 µM (inactive)	17.5 µM (inactive)	22 µM (inactive)	19 µM (inactive)	12.2 µM (inactive)	5.47 µM (inactive)	13.8 µM (inactive)	14.7 µM (inactive)	18.3 µM (inactive)	19.4 µM (inactive)	17.5 µM (inactive)	11.2 µM (inactive)	14.8 µM (inactive)	17.2 µM (inactive)	16.9 µM (inactive)	12.7 µM (inactive)	21.9 µM (inactive)	18.7 µM (inactive)	–	–
CCCCCCOc1ccc(NC2=C(Cl)C(=O)c3cccnc3C2=O)cc1	1.95 µM (inactive)	2.1 µM (inactive)	–	–	0.895 µM (active)	2.62 µM (inactive)	1.88 µM (inactive)	1.61 µM (inactive)	1.74 µM (inactive)	2.4 µM (inactive)	2.03 µM (inactive)	1.37 µM (inactive)	3.65 µM (inactive)	2.13 µM (inactive)	1.59 µM (inactive)	1 µM (active)	3.3 µM (inactive)	1.14 µM (inactive)	1.55 µM (inactive)	–
OCc1c2c(cc3c1CC1(C3)Cc3cc4c(c(CO)c3C1)CCC4)CCC2	14.4 µM (inactive)	10.3 µM (inactive)	–	24.3 µM (inactive)	13.6 µM (inactive)	17.1 µM (inactive)	15.5 µM (inactive)	16.4 µM (inactive)	13.1 µM (inactive)	19.8 µM (inactive)	18.6 µM (inactive)	16.6 µM (inactive)	12.4 µM (inactive)	–	19.8 µM (inactive)	–	19.6 µM (inactive)	1.67 µM (inactive)	–	15.1 µM (inactive)
CC1CCC2(NC1)OC1CC3[C@@H]4CC=C5C=CCC[C@]5(C)C4CC[C@]3(C)C1C2C (some centres not stated)	24 µM (inactive)	22.9 µM (inactive)	26.3 µM (inactive)	17.3 µM (inactive)	17.7 µM (inactive)	15.1 µM (inactive)	30.3 µM (inactive)	18.9 µM (inactive)	32.3 µM (inactive)	23.6 µM (inactive)	17.9 µM (inactive)	18.8 µM (inactive)	23.3 µM (inactive)	15.6 µM (inactive)	19 µM (inactive)	15.5 µM (inactive)	15.3 µM (inactive)	21.8 µM (inactive)	–	–
N#CC(Cl)CS(=O)(=O)c1ccccc1 (configuration not stated)	20.1 µM (inactive)	4.41 µM (inactive)	3.06 µM (inactive)	1.75 µM (inactive)	4.34 µM (inactive)	7.66 µM (inactive)	16.9 µM (inactive)	17.5 µM (inactive)	16.3 µM (inactive)	20.3 µM (inactive)	6.7 µM (inactive)	2.35 µM (inactive)	18.7 µM (inactive)	13.3 µM (inactive)	16.1 µM (inactive)	15.2 µM (inactive)	3.7 µM (inactive)	19.1 µM (inactive)	17.5 µM (inactive)	–
COc1cc(-c2nn3c(=O)n(-c4ccc(Cl)cc4)c(=O)nc3s2)cc(OC)c1OC	41 µM (inactive)	16.3 µM (inactive)	18.2 µM (inactive)	> 100 µM (inactive)	33.7 µM (inactive)	> 100 µM (inactive)	> 89.1 µM (inactive)	> 65.8 µM (inactive)	37.6 µM (inactive)	> 100 µM (inactive)	> 49.5 µM (inactive)	8.87 µM (inactive)	> 50 µM (inactive)	> 93.1 µM (inactive)	24.9 µM (inactive)	8.24 µM (inactive)	8.55 µM (inactive)	> 76.6 µM (inactive)	–	–
COc1cc(-c2cc(=O)c3ccccc3o2)ccc1N	52.1 µM (inactive)	47.3 µM (inactive)	11.7 µM (inactive)	69.3 µM (inactive)	54.3 µM (inactive)	52.8 µM (inactive)	> 100 µM (inactive)	39.3 µM (inactive)	33.8 µM (inactive)	84.7 µM (inactive)	51.9 µM (inactive)	41 µM (inactive)	46.7 µM (inactive)	> 100 µM (inactive)	> 100 µM (inactive)	19.7 µM (inactive)	> 100 µM (inactive)	18.1 µM (inactive)	–	–
OCCNCO	> 100 µM (inactive)	> 100 µM (inactive)	> 100 µM (inactive)	> 100 µM (inactive)	> 100 µM (inactive)	> 100 µM (inactive)	> 100 µM (inactive)	> 100 µM (inactive)	> 100 µM (inactive)	> 100 µM (inactive)	> 100 µM (inactive)	> 100 µM (inactive)	> 100 µM (inactive)	> 100 µM (inactive)	> 100 µM (inactive)	> 100 µM (inactive)	> 100 µM (inactive)	> 100 µM (inactive)	–	–
CCC(=O)C(C(=O)CC)c1c(OC(=O)c2ccccc2)ccc(O)c1C(=O)OC	> 100 µM (inactive)	> 100 µM (inactive)	> 100 µM (inactive)	> 100 µM (inactive)	> 100 µM (inactive)	> 100 µM (inactive)	> 100 µM (inactive)	> 100 µM (inactive)	> 100 µM (inactive)	> 100 µM (inactive)	> 100 µM (inactive)	> 100 µM (inactive)	> 100 µM (inactive)	> 100 µM (inactive)	> 100 µM (inactive)	90.8 µM (inactive)	> 100 µM (inactive)	> 100 µM (inactive)	–	–
